Test results taken from patent US20240287076A1, “COMPOUNDS FOR TARGETING DEGRADATION OF BRUTON'S TYROSINE KINASE” (BIOGEN MA INC., priority 2021, published 2024).

biological target: T1, BTK (Homo sapiens, UniProt Q06187); assay: BTK degradation assay using the HiBiT Method (Nano-Glo HiBiT Lytic Assay, GM01501.3 cells); format: cell-based; conditions: HiBiT Degradation on GM01501.3 BTK @ 6 hours
T1 construct: The GM01501.3 cell line endogenously expresses BTK with a HiBiT fusion tag via CRISPR knock-in at its C-terminal region; endogenous in cells; host or cells: GM01501.3 (GM01501 cells engineered by CRISPR knock-in of HiBiT at the BTK locus)
Method in brief: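 Degradation read-out: HiBiT luminescence after lytic reagent addition, giving DC50. Compounds dosed from 10 μM in 11 half-log steps (duplicate) onto GM01501.3 cells, whose endogenous BTK carries a C-terminal HiBiT knock-in tag; 6 h exposure, 37 °C, 5% CO2.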

T1 sequence (Q06187 whole entry, the tested form may be a part): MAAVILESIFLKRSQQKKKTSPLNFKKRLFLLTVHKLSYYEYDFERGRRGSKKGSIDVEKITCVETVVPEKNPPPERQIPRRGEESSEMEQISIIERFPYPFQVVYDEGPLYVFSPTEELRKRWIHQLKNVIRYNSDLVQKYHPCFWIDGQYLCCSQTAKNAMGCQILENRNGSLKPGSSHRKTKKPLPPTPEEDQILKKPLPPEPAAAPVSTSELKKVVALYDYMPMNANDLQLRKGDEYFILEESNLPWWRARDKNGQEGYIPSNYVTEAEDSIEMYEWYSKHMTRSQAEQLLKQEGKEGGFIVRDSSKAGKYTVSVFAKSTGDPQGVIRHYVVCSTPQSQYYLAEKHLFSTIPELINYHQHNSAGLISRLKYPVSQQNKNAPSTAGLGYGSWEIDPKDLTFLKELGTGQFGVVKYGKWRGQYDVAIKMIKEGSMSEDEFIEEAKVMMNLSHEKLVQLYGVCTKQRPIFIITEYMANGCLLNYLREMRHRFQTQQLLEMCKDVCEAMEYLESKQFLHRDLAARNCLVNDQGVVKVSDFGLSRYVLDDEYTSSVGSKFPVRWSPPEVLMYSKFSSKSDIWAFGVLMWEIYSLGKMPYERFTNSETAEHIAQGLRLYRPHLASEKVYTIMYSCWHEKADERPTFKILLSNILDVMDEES

Row | Compound | DC50 [nM]
1 | Cn1nc(N2CCC(=O)NC2=O)c2ccc(C3CCN(Cc4ccc(-c5cc6nccc(-c7ccc(CNC(=O)c8noc(C(C)(C)C)n8)c(F)c7)n6n5)cc4F)CC3)cc21 [Example 166, 5-tert-butyl-N-[[4-[2-[4-[[4-[3-(2,4-dioxohexahydropyrimidin-1-yl)-1-methyl-indazol-6-yl]-1-piperidyl]methyl]-3-fluoro-phenyl]pyrazolo[1,5-a]pyrimidin-7-yl]-2-fluoro-phenyl]methyl]-1,2,4-oxadiazole-3-carboxamide] | < 100
2 | Cc1cc(-c2ncnn3cc(-c4ccc(CN5CCC(c6ccc(NC7CCC(=O)NC7=O)cc6)CC5)cc4)cc23)ccc1CNC(=O)CCC(C)(C)C (stereo not drawn) [Example 81, N-[[4-[6-[4-[[4-[4-[(2,6-dioxo-3-piperidyl)amino]phenyl]-1-piperidyl]methyl]phenyl]pyrrolo[2,1-f][1,2,4]triazin-4-yl]-2-methyl-phenyl]methyl]-4,4-dimethyl-pentanamide] | < 100
3 | Cc1cc(-c2ncnn3cc(CCCCN4CC(c5ccc(NC6CCC(=O)NC6=O)cc5)C4)cc23)ccc1CNC(=O)c1noc(C(C)(C)C)n1 (stereo not drawn) [Example 148, 5-tert-butyl-N-[[4-[6-[4-[3-[4-[(2,6-dioxo-3-piperidyl)amino]phenyl]azetidin-1-yl]butyl]pyrrolo[2,1-f][1,2,4]triazin-4-yl]-2-methyl-phenyl]methyl]-1,2,4-oxadiazole-3-carboxamide] | 100 to 500
4 | CC(C)(C)c1nc(C(=O)NCc2ccc(-c3ncnn4cc(CCCCN5CCC(c6ccc(NC7CCC(=O)NC7=O)nc6)CC5)cc34)cc2F)no1 (stereo not drawn) [Example 138, 5-tert-butyl-N-[[4-[6-[4-[4-[6-[(2,6-dioxo-3-piperidyl)amino]-3-pyridyl]-1-piperidyl]butyl]pyrrolo[2,1-f][1,2,4]triazin-4-yl]-2-fluoro-phenyl]methyl]-1,2,4-oxadiazole-3-carboxamide] | < 100
5 | Cc1cc(-c2ncnn3cc(CCN4CCC(c5ccc6c(N7CCC(=O)NC7=O)nn(C)c6c5)CC4)cc23)ccc1CNC(=O)c1noc(C2(C)CCC2)n1 [Example 257, N-(4-(6-(2-(4-(3-(2,4-dioxotetrahydropyrimidin-1(2H)-yl)-1-methyl-1H-indazol-6-yl)piperidin-1-yl)ethyl)pyrrolo[2,1-f][1,2,4]triazin-4-yl)-2-methylbenzyl)-5-(1-methylcyclobutyl)-1,2,4-oxadiazole-3-carboxamide] | < 100
6 | Cc1ccc(C(=O)NCc2ccc(-c3ncnn4cc(-c5ccc(CN6CCC(c7ccc(NC8CCC(=O)NC8=O)cc7)CC6)cc5)cc34)cc2C)nc1 (stereo not drawn) [Example 87, N-[[4-[6-[4-[[4-[4-[(2,6-dioxo-3-piperidyl)amino]phenyl]-1-piperidyl]methyl]phenyl]pyrrolo[2,1-f][1,2,4]triazin-4-yl]-2-methyl-phenyl]methyl]-5-methyl-pyridine-2-carboxamide] | < 100
7 | CN(Cc1ccc(-c2ncnn3cc(-c4ccc(CN5CCC(c6ccc7c(N8CCC(=O)NC8=O)nn(C)c7c6)CC5)cc4)cc23)cc1F)C(=O)c1noc(C(C)(C)C)n1 [Example 37, 5-tert-butyl-N-[[4-[6-[4-[[4-[3-(2,4-dioxohexahydropyrimidin-1-yl)-1-methyl-indazol-6-yl]-1-piperidyl]methyl]phenyl]pyrrolo[2,1-f][1,2,4]triazin-4-yl]-2-fluoro-phenyl]methyl]-N-methyl-1,2,4-oxadiazole-3-carboxamide] | 100 to 500
8 | CC(C)(C)c1nc(C(=O)NCc2ccc(-c3ncnn4cc(-c5ccc(CN6CCC(c7ccc(NC8CCC(=O)NC8=O)cc7)CC6)cc5)cc34)cc2Cl)no1 (stereo not drawn) [Example 48, 5-tert-butyl-N-[[2-chloro-4-[6-[4-[[4-[4-[(2,6-dioxo-3-piperidyl)amino]phenyl]-1-piperidyl]methyl]phenyl]pyrrolo[2,1-f][1,2,4]triazin-4-yl]phenyl]methyl]-1,2,4-oxadiazole-3-carboxamide] | < 100
9 | Cn1nc(N2CCC(=O)NC2=O)c2ccc(C3CCN(CCCOc4cc5c(-c6ccc7c(c6)OCCCC7NC(=O)c6noc(C(C)(C)C)n6)ncnn5c4)CC3)cc21 (stereo not drawn) [Example 294, 5-(tert-butyl)-N-(8-(6-(3-(4-(3-(2,4-dioxotetrahydropyrimidin-1(2H)-yl)-1-methyl-1H-indazol-6-yl)piperidin-1-yl)propoxy)pyrrolo[2,1-f] [1,2,4]triazin-4-yl)-2,3,4,5-tetrahydrobenzo[b]oxepin-5-yl)-1,2,4-oxadiazole-3-carboxamide] | < 100
10 | Cc1cc(-c2ccnn3cc(CCCCN4CCC(c5ccc(NC6CCC(=O)NC6=O)cc5)CC4)cc23)ccc1CNC(=O)c1noc(C(C)(C)C)n1 (stereo not drawn) [Example 156, 5-tert-butyl-N-[[4-[6-[4-[4-[4-[(2,6-dioxo-3-piperidyl)amino]phenyl]-1-piperidyl]butyl]pyrrolo[1,2-b]pyridazin-4-yl]-2-methyl-phenyl]methyl]-1,2,4-oxadiazole-3-carboxamide] | < 100
11 | Cc1cc(-c2ncnn3cc(-c4ccc(OCCCCCCCCN5CCC(c6ccc(NC7CCC(=O)NC7=O)cc6)CC5)cc4)cc23)ccc1CNC(=O)c1noc(C(C)(C)C)n1 (stereo not drawn) [Example 115, -tert-butyl-N-[[4-[6-[4-[8-[4-[4-[(2,6-dioxo-3-piperidyl)amino]phenyl]-1-piperidyl]octoxy]phenyl]pyrrolo[2,1-f][1,2,4]triazin-4-yl]-2-methyl-phenyl]methyl]-1,2,4-oxadiazole-3-carboxamide] | < 100
12 | Cc1cc(-c2ncnn3cc(C4CC4CN4CCC(c5ccc(NC6CCC(=O)NC6=O)cc5)CC4)cc23)ccc1CNC(=O)c1noc(C(C)(C)C)n1 (stereo not drawn) [Example 145, 5-tert-butyl-N-[[4-[6-[2-[[4-[4-[(2,6-dioxo-3-piperidyl)amino]phenyl]-1-piperidyl]methyl]cyclopropyl]pyrrolo[2,1-f][1,2,4]triazin-4-yl]-2-methyl-phenyl]methyl]-1,2,4-oxadiazole-3-carboxamide] | < 100
13 | Cc1cc(-c2ccnn3cc(CCN4CCC(c5ccc(NC6CCC(=O)NC6=O)cc5)CC4)cc23)ccc1CNC(=O)c1noc(C(C)(C)C)n1 (stereo not drawn) [Example 155, 5-tert-butyl-N-[[4-[6-[2-[4-[4-[(2,6-dioxo-3-piperidyl)amino]phenyl]-1-piperidyl]ethyl]pyrrolo[1,2-b]pyridazin-4-yl]-2-methyl-phenyl]methyl]-1,2,4-oxadiazole-3-carboxamide] | < 100
14 | Cc1cc(-c2ncnn3cc(-c4ccc5c(c4)CCN(CCCc4ccc(NC6CCC(=O)NC6=O)cc4)C5)cc23)ccc1CNC(=O)c1noc(C(C)(C)C)n1 (stereo not drawn) [Example 58, 5-tert-butyl-N-[[4-[6-[2-[3-[4-[(2,6-dioxo-3-piperidyl)amino]phenyl]propyl]-3,4-dihydro-1H-isoquinolin-6-yl]pyrrolo[2,1-f][1,2,4]triazin-4-yl]-2-methyl-phenyl]methyl]-1,2,4-oxadiazole-3-carboxamide] | < 100
15 | Cn1nc(N2CCC(=O)NC2=O)c2ccc(C3CCN(CCOc4ccc(-c5cc6c(-c7ccc(CNC(=O)c8noc(C(C)(C)C)n8)c(F)c7)ncnn6c5)cc4)CC3)cc21 [Example 109] | < 100
16 | Cc1cc(-c2ncnn3cc(N4CCN(C(=O)[C@@H]5CCC[C@H](NC(=O)c6ccc(OC7CCC(=O)NC7=O)cc6)C5)CC4)cc23)ccc1CNC(=O)c1noc(C(C)(C)C)n1 (stereo partly drawn) [Example 188, 5-(tert-butyl)-N-(4-(6-(4-((1R,3S)-3-(4-((2,6-dioxopiperidin-3-yl)oxy)benzamido)cyclohexane-1-carbonyl)piperazin-1-yl)pyrrolo[2,1-f][1,2,4]triazin-4-yl)-2-methylbenzyl)-1,2,4-oxadiazole-3-carboxamide] | < 100
17 | Cc1cc(-c2ncnn3cc(-c4ccc(CN5CCC(c6ccc(NC7CCC(=O)NC7=O)cc6)CC5)cc4)cc23)ccc1CNC(=O)c1ccc(C(C)C)nc1 (stereo not drawn) [Example 69, N-[[4-[6-[4-[[4-[4-[(2,6-dioxo-3-piperidyl)amino]phenyl]-1-piperidyl]methyl]phenyl]pyrrolo[2,1-f][1,2,4]triazin-4-yl]-2-methyl-phenyl]methyl]-6-isopropyl-pyridine-3-carboxamide] | < 100
18 | Cc1cc(-c2ncnn3cc(-c4ccc(CN5CCC(c6ccc(NC7CCC(=O)NC7=O)cc6)CC5)cc4)cc23)ccc1CNC(=O)c1ccc(C(F)F)cc1 (stereo not drawn) [Example 61, 4-(difluoromethyl)-N-[[4-[6-[4-[[4-[4-[(2,6-dioxo-3-piperidyl)amino]phenyl]-1-piperidyl]methyl]phenyl]pyrrolo[2,1-f][1,2,4]triazin-4-yl]-2-methyl-phenyl]methyl]benzamide] | < 100
19 | Cc1cc(-c2ncnn3cc(-c4ccc(CN5CCC(c6ccc(NC7CCC(=O)NC7=O)cc6Cl)CC5)cc4)cc23)ccc1CNC(=O)c1noc(C(C)(C)C)n1 (stereo not drawn) [Example 24, 5-tert-butyl-N-[[4-[6-[4-[[4-[2-chloro-4-[(2,6-dioxo-3-piperidyl)amino]phenyl]-1-piperidyl]methyl]phenyl]pyrrolo[2,1-f][1,2,4]triazin-4-yl]-2-methyl-phenyl]methyl]-1,2,4-oxadiazole-3-carboxamide] | < 100
20 | CC(C)(C)c1nc(C(=O)NCc2ccc(-c3ncnn4cc(-c5ccc(CN6CCC(c7ccc(NC8CCC(=O)NC8=O)nc7)CC6)cc5)cc34)cc2F)no1 (stereo not drawn) [Example 32, 5-tert-butyl-N-[[4-[6-[4-[[4-[6-[(2,6-dioxo-3-piperidyl)amino]-3-pyridyl]-1-piperidyl]methyl]phenyl]pyrrolo[2,1-f][1,2,4]triazin-4-yl]-2-fluoro-phenyl]methyl]-1,2,4-oxadiazole-3-carboxamide] | < 100
21 | Cc1cc(-c2ncnn3cc(-c4ccc(CCN5CCC(c6ccc(NC7CCC(=O)NC7=O)cc6)CC5)cc4)cc23)ccc1CNC(=O)c1noc(C(C)(C)C)n1 (stereo not drawn) [Example 53, 5-tert-butyl-N-[[4-[6-[4-[2-[4-[4-[(2,6-dioxo-3-piperidyl)amino]phenyl]-1-piperidyl]ethyl]phenyl]pyrrolo[2,1-f][1,2,4]triazin-4-yl]-2-methyl-phenyl]methyl]-1,2,4-oxadiazole-3-carboxamide] | < 100
